Reference: patent EP2530078A1, “THIAZOLE DERIVATIVE” (Takeda Pharmaceutical Company Limited, priority 2010, dated 2011)
Counter-ions that a name gives are not always drawn.

Biological target: T1, human GPR52 (Homo sapiens, UniProt Q9Y2T5)
T1 construct: expressed in transfected cells; host or cells: CHO(dhfr-) cells
Assay: Increase of intracellular cAMP concentration in human GPR52-expressing CHO cell (AlphaScreen cAMP assay)
Format: cell-based
Settings: 0.5 h; test compound 10 µm, 37°C, 30 min, human GPR52-expressing CHO(dhfr-) cells; 100% = cAMP with 1 µM N-(2-hydroxyethyl)-3-[2-[3-(trifluoromethyl)benzyl]-1-benzofuran-4-yl]benzamide, 0% = DMSO; read-out: GPR52 agonist activity (%)
Procedure: Increase of intracellular cAMP concentration in human GPR52-expressing CHO cell
Using OptiPlate-384 (PerkinElmer Inc.), 1×10^4 human GPR52-expressing CHO(dhfr-) cells were incubated together with a test compound ([…]) in an assay buffer (30 µL, HBSS (containing Ca^2+ and Mg^2+), 0.5% BSA, 100 µM IBMX, 100 µM Ro20-1724, 5 mM HEPES (pH 7.55)) at 37°C for 30 min. Thereafter, according to the protocol of AlphaScreen cAMP Assay Kit (PerkinElmer Inc.), the intracellular cAMP concentration was measured by EnVision (PerkinElmer Inc.). The GPR52 agonist activity was calculated, assuming the intracellular cAMP concentration in the presence of 1 µM N-(2-hydroxyethyl)-3-[2-[3-(trifluoromethyl)benzyl]-1-benzofuran-4-yl]benzamide to be 100% and assuming the intracellular cAMP concentration when DMSO was added instead of the test compound to be 0%.

T1 sequence (Q9Y2T5 whole entry): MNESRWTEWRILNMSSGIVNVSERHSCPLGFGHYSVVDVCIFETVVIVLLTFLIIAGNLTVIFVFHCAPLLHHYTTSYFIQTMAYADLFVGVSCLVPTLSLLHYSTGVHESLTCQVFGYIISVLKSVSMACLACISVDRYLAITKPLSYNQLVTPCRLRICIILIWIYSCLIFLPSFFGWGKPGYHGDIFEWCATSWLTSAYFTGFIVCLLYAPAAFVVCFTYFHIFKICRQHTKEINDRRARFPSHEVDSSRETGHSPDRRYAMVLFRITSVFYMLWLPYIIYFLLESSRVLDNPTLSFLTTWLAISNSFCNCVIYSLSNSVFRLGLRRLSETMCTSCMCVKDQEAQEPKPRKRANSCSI

activation at 10 µM [%]	SMILES
78	COCCNC(=O)[C@@H]1C[C@H]1C(=O)Nc1sc(Cc2cc(F)cc(Cl)c2)nc1C (relative stereo) [Example 189, trans-N-[2-(3-chloro-5-fluorobenzyl)-4-methyl-1,3-thiazol-5-yl]-N'-(2-methoxyethyl)cyclopropane-1,2-dicarboxamide]
82	COC(=O)[C@@H]1C[C@@H]1C(=O)Nc1sc(Cc2cc(F)cc(Cl)c2)nc1C (relative stereo) [Example 190, methyl cis-2-{[2-(3-chloro-5-fluorobenzyl)-4-methyl-1,3-thiazol-5-yl]carbamoyl}cyclopropanecarboxylate]
92	Cn1nccc1C(=O)Nc1cnc(Cc2cccc(C(F)(F)F)c2)s1 [Example 1, 1-methyl-N-{2-[3-(trifluoromethyl)benzyl]-1,3-thiazol-5-yl}-1H-pyrazole-5-carboxamide]
72	CCN1CC(C(=O)Nc2sc(Cc3cccc(C(F)(F)F)c3)nc2C)CC1=O (stereo not shown) [Example 4, 1-ethyl-N-(4-methyl-2-[3-(trifluoromethyl)benzyl]-1,3-thiazol-5-yl}-5-oxopyrrolidine-3-carboxamide]
83	Cn1nccc1C(=O)Nc1sc(Cc2cccc(C(F)(F)F)c2)nc1CO [Example 6, N-{4-(hydroxymethyl)-2-[3-(trifluoromethyl)benzyl]-1,3-thiazol-5-yl}-1-methyl-1H-pyrazole-5-carboxamide]
78	COCc1nc(Cc2cccc(C(F)(F)F)c2)sc1NC(=O)c1ccnn1C [Example 8, N-{4-(methoxymethyl)-2-[3-(trifluoromethyl)benzyl]-1,3-thiazol-5-yl}-1-methyl-1H-pyrazole-5-carboxamide]
92	CCc1nc(Cc2cccc(C(F)(F)F)c2)sc1NC(=O)c1ccnn1C [Example 11, N-{4-ethyl-2-[3-(trifluoromethyl)benzyl]-1,3-thiazol-5-yl}-1-methyl-1H-pyrazole-5-carboxamide]
75	C=Cc1nc(Cc2cccc(C(F)(F)F)c2)sc1NC(=O)c1ccnn1C [Example 12, N-{4-ethenyl-2-[3-(trifluorornethyl)benzyl]-1,3-thiazol-5-yl}-1-methyl-1H-pyrazole-5-carboxamide]
80	CCCc1nc(Cc2cccc(C(F)(F)F)c2)sc1NC(=O)c1ccnn1C [Example 14, 1-methyl-N-{4-propyl-2-[3-(trifluoromethyl)benzyl]-1,3-thiazol-5-yl}-1H-pyrazole-5-carboxamide]
72	CCCCc1nc(Cc2cccc(C(F)(F)F)c2)sc1NC(=O)c1ccnn1C [Example 16, N-{4-butyl-2-[3-(trifluoromethyl)benzyl]-1,3-thiazol-5-yl}-1-methyl-1H-pyrazole-5-carboxamide]
94	Cn1nccc1C(=O)Nc1sc(Cc2cccc(C(F)(F)F)c2)nc1C(F)(F)F [Example 17, 1-methyl-N-{4-(trifluoromethyl)-2-[3-(trifluoromethyl)benzyl]-1,3-thiazol-5-yl}-1H-pyrazole-5-carboxamide]
69	CC(=O)N1CCC(C(=O)Nc2sc(Cc3cccc(C(F)(F)F)c3)nc2C)C1 (stereo not shown) [Example 21, 1-acetyl-N-{4-methyl-2-[3-(trifluoromethyl)benzyl]-1,3-thiazol-5-yl}pyrrolidine-3-carboxamide]
71	Cc1nc(Cc2cccc(C(F)(F)F)c2)sc1NC(=O)C1CCCNC1 (stereo not shown) [Example 29, N-{4-methyl-2-[3-(trifluoromethyl)benzyl]-1,3-thiazol-5-yl}piperidine-3-carboxamide hydrochloride]
70	Cc1nc(Cc2cccc(C(F)(F)F)c2)sc1NC(=O)C1CCNCC1 [Example 33, N-{4-methyl-2-[3-(trifluoromethyl)benzyl]-1,3-thiazol-5-yl}piperidine-4-carboxamide hydrochloride]
79	Cc1nc(Cc2cccc(C(F)(F)F)c2)sc1NC(=O)C1(C#N)CC1 [Example 39, 1-cyano-N-{4-methyl-2-[3-(trifluoromethyl)benzyl]-1,3-thiazol-5-yl}cyclopropanecarboxamide]
80	Cc1nc(Cc2cccc(C(F)(F)F)c2)sc1NC(=O)c1ccoc1C [Example 40, 2-methyl-N-{4-methyl-2-[3-(trifluoromethyl)-benzyl]-1,3-thiazol-5-yl}furan-3-carboxamide]
72	Cc1nc(Cc2cccc(C(F)(F)F)c2)sc1NC(=O)c1nccn1C [Example 41, 1-methyl-N-{4-methyl-2-[3-(trifluoromethyl)-benzyl]-1,3-thiazol-5-yl}-1H-imidazole-2-carboxamide]
73	Cc1nc(Cc2cccc(C(F)(F)F)c2)sc1NC(=O)c1cncn1C [Example 43, 1-methyl-N-{4-methyl-2-[3-(trifluoromethyl)-benzyl]-1,3-thiazol-5-yl}-1H-imidazole-5-carboxamide]
82	Cc1nc(Cc2cccc(C(F)(F)F)c2)sc1NC(=O)c1c(C)nn(C)c1C [Example 47, 1,3,5-trimethyl-N-{4-methyl-2-[3-(trifluoromethyl)-benzyl]-1,3-thiazol-5-yl}-1H-pyrazole-4-carboxamide]
77	Cc1nc(Cc2cccc(C(F)(F)F)c2)sc1NC(=O)c1c(C)nn(C)c1Cl [Example 51, 5-chloro-1,3-dimethyl-N-{4-methyl-2-[3-(trifluoromethyl)-benzyl]-1,3-thiazol-5-yl}-1H-pyrazole-4-carboxamide]
86	CSc1ncccc1C(=O)Nc1sc(Cc2cccc(C(F)(F)F)c2)nc1C [Example 76, 2-(methylsulfanyl)-N-{4-methyl-2-[3-(trifluoromethyl)-benzyl]-1,3-thiazol-5-yl}pyridine-3-carboxamide]
82	Cc1nc(Cc2cccc(C(F)(F)F)c2)sc1NC(=O)c1ccnn1C [Example 110, 1-methyl-N-{4-methyl-2-[3-(trifluoromethyl)-benzyl]-1,3-thiazol-5-yl}-1H-pyrazole-5-carboxamide]
96	Cc1nc(Cc2cccc(C(F)(F)F)c2)sc1NC(=O)c1ccc(CCN2CCCC2)nc1 [Example 122, N-{4-methyl-2-[3-(trifluoromethyl)-benzyl]-1,3-thiazol-5-yl}-6-(2-pyrrolidin-1-ylethyl)pyridine-3-carboxamide]
78	Cc1cc(C(=O)Nc2sc(Cc3cc(F)cc(Cl)c3)nc2C)n(C)n1 [Example 147, N-[2-(3-chloro-5-fluorobenzyl)-4-methyl-1,3-thiazol-5-yl]-1,3-dimethyl-1H-pyrazole-5-carboxamide]
75	Cc1nc(Cc2cc(F)cc(Cl)c2)sc1NC(=O)c1cc(Cl)nn1C [Example 149, 3-chloro-N-[2-(3-chloro-5-fluorobenzyl)-4-methyl-1,3-thiazol-5-yl]-1-methyl-1H-pyrazole-5-carboxamide]
69	Cc1nc(Cc2cc(F)cc(Cl)c2)sc1NC(=O)c1ccnn1C(F)F [Example 150, N-[2-(3-chloro-5-fluorobenzyl)-4-methyl-1,3-thiazol-5-yl]-1-(difluoromethyl)-1H-pyrazole-5-carboxamide]
69	Cc1nc(Cc2cc(F)cc(Cl)c2)sc1NC(=O)c1ccnn1C(C)C [Example 151, N-[2-(3-chloro-5-fluorobenzyl)-4-methyl-1,3-thiazol-5-yl]-1-(1-methylethyl)-1H-pyrazole-5-carboxamide]
76	Cc1nc(Cc2ccc(F)c(Cl)c2)sc1NC(=O)c1ccnn1C [Example 156, N-[2-(3-chloro-4-fluorobenzyl)-4-methyl-1,3-thiazol-5-yl]-1-methyl-1H-pyrazole-5-carboxamide]
77	Cc1nc(Cc2cccc(Cl)c2)sc1NC(=O)c1ccnn1C [Example 157, N-[2-(3-chlorobenzyl)-4-methyl-1,3-thiazol-5-yl]-1-methyl-1H-pyrazole-5-carboxamide]

Same assay, conditions: test compound 10 µm, 37°C, 30 min, human GPR52-expressing CHO(dhfr-) cells; 100% = cAMP with 1 µM N-(2-hydroxyethyl)-3-[2-[3-(trifluoromethyl)benzyl]-1-benzofuran-4-yl]benzamide, 0% = DMSO

GPR52 agonist activity (%)	SMILES
80	CCNC(=O)N1CCC(C(=O)Nc2sc(Cc3cccc(C(F)(F)F)c3)nc2C)C1 (stereo not shown) [Example 23, N1-ethyl-N3-{4-methyl-2-[3-(trifluoromethyl)benzyl]-1,3-thiazol-5-yl}pyrrolidine-1,3-dicarboxamide]
93	Cc1nocc1C(=O)Nc1sc(Cc2cccc(C(F)(F)F)c2)nc1C [Example 24, 3-methyl-N-{4-methyl-2-[3-(trifluoromethyl)benzyl]-1,3-thiazol-5-yl}isoxazole-4-carboxamide]
78	Cc1cc(C(=O)Nc2sc(Cc3cccc(C(F)(F)F)c3)nc2C)c(C)o1 [Example 26, 2,5-dimethyl-N-{4-methyl-2-[3-(trifluoromethyl)benzyl]-1,3-thiazol-5-yl}furan-3-carboxamide]
81	CCS(=O)(=O)N1CCC(C(=O)Nc2sc(Cc3cccc(C(F)(F)F)c3)nc2C)C1 (stereo not shown) [Example 30, 1-(ethylsulfonyl)-N-(4-methyl-2-[3-(trifluoromethyl)benzyl]-1,3-thiazol-5-yl}pyrrolidine-3-carboxamide]

SMILES	GPR52 agonist activity (%)
Cc1nc(Cc2cccc(C(F)(F)F)c2)sc1NC(=O)C1CCNC1 (stereo not shown) [Example 20, N-{4-methyl-2-[3-(trifluoromethyl)benzyl]-1,3-thiazol-5-yl}pyrrolidine-3-carboxamide hydrochloride]	74
